# Experimental data published in US7396842B2, “Five-membered cyclic compounds” (Dianippon Sumitomo Pharma Co., Ltd., priority 2002, dated 2008).
# Read-outs that look alike come from different tables or passages of the source.
# Experiments:
# [1] = molecular target: T1, SMBS on rat lung membranes (Rattus norvegicus, UniProt A0A8I6A822); experiment: Receptor binding of the compound in rat lung membranes ([125I]-iodo-cyanopindolol ligand binding assay; Experiments 1 and 4); details: rat lung membranes, read-out: Binding Activity (30 μM)
# T1 construct: from tissue; host or cells: rat lung membranes (SD male rats)
# T1 sequence (A0A8I6A822 27-587): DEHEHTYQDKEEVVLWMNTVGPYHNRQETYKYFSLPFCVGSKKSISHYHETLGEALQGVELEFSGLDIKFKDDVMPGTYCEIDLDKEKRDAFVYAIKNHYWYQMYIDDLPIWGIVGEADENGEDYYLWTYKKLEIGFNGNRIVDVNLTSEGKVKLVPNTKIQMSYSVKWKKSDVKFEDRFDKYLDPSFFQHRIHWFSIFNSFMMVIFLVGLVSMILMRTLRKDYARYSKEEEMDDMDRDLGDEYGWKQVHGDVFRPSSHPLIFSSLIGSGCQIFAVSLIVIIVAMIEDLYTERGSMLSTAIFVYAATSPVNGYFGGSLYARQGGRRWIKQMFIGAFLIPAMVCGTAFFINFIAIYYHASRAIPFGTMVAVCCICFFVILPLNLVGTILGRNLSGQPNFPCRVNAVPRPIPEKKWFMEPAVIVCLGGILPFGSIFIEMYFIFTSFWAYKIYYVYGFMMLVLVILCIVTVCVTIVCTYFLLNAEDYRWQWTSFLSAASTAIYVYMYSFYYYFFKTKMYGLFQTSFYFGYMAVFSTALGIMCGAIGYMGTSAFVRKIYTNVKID
# Protocol: Evaluation Test on Receptor Binding of the Compound in Rat Lung Membranes:
# This experiment was carried out according to the method disclosed in Sugasawa et al., (Sugasawa, T. et al., J. Biol. Chem., 272, 21244-21252(1997)).
# Preparation of Rat Lung Membranes
# The air tube and blood vessels were removed from the lung excised from SD male rats (7-weeks old when used, purchased from Charles River Japan, Inc.), and the lung was chopped, and washed with ice-cold tris-saline buffer (10 mM Tris-HCl, 154 mM sodium chloride, pH 7.4). The lung was homogenized by PHYSCOTRON (maximum speed: 1 minute) in a buffer for homogenization (tris-saline buffer containing 1 mM ethylenediaminetetraacetate (EDTA), 1 mM 4-(2-aminoethyl)-benzenesulfonyl fluoride (AEBSF), 5 μg/ml aprotinin, 5 μg/ml leupeptin) under ice-cooling. The mixture was centrifuged at a low speed (1500×g, 20 minutes, 4° C.), and the supernatant was super-centrifuged (100000×g, 20 minutes, 4° C.). The pellets thus obtained were suspended in tris-saline buffer, and kept at −80° C. The concentration of protein was measured by a Protein Assay Kit manufactured by Bio-Rad using bovine serum albumin (BSA) as standard.
# To each well of a protein-non-adsorbent round-bottom 96-well assay plate (purchased from IWAKI GLASS CO., LTD.) was added tris-saline buffer (200 μl) containing 1 nM [^125I]-iodo-cyanopindolol (purchased from Amarsham), 10 μM serotonin, 20 μM dl-propranol, 10 μM phentoramine, 1.1 mM ascorbic acid and 100 μg lung membranes, and the mixture was mixed well by pipetting, and the plate was incubated at 37° C. for 30 minutes. Test compounds were dissolved in 100% dimethylsulfoxide, and added to the plate in an amount of 2 μl (final concentration of DMSO: 1%). In order to obtain non-specific binding, L-threo-3-(3,4-dihydroxyphenyl)-N-[3-(4-fluorophenyl)propyl]-serinepyrrolidinamide was added at a final concentration of 100 μM instead of test compound. During this period, 0.3% polyethyleneimine (PEI)/tris-saline buffer (100 μl) was added to a multiscreen plate (96-well B-glassfiber, milipore Cat. No. MAFB NOB10) and the plate was incubated for more than 30 minutes. The plate was washed by vacuum filtration (by adding ice-cold tris-saline buffer (200 μl) and then vacuum filtration), and the reaction solution on the 96-well assay plate was washed by vacuum filtration onto the multiscreen plate for four times. The B-glassfiber paper filter at the bottom of the multiscreen plate was punched out, and the γ-ray amount of [^125I]-iodo-cyanopindolol being trapped onto the paper filter was measured as binding amount. The binding amount in the presence of DMSO (final concentration: 1%) was regarded as total binding, and the binding in the presence of L-threo-3-(3,4-dihydroxyphenyl) -N-[3-(4-fluorophenyl)-propyl]serinepyrrolidinamide was regarded as non-specific binding. The value which is calculated by subtracting non-specific binding from total binding is specific binding. The binding activity of the compound can be calculated by the following equation, and expressed in a ratio of inhibiting the specific binding of [^125I]-iodo-cyanopindorol to SMBS on rat lung membranes.
# In the same manner to in Experiment 1, the receptor binding assay was carried out on the present compounds by using the rat lung membranes.
# Hartley male guinea pigs = experiment: Late asthmatic model in guinea pigs (ovalbumin sensitization and challenge, respiratory function sGaw); format: in vivo, guinea pig
# Protocol: Experiment 2 Evaluation of the Compound in Late Asthmatic Model in Guinea Pigs
# The evaluation test was carried out using the compound obtained in Example 1.
# Hartley male guinea pigs (purchased from Japan SLC) were prefed for about 1 week after purchasing them, and exposed to a 2% (w/v) solution of ovalbumin (OA) in saline solution in a plastic box (4 animals/box) for 5 minutes and made them inhale it by using an ultrasonic nebulizer (OMRON NE-U12, conditions: maximum amount of atomization and maximum airflow) for sensitization (Day 0). The animals were subjected to the same procedures on the 7th day. On the 14th and 15th days, each one animal was made to inhale a 2% OA for 5 minutes for antigen-challenge. One hour prior to the antigen-challenge, pyrilamine maleate (antihistamic agent; dissolved in saline solution, 10 mg/2 ml/kg) was intraperitoneally administered to each animal. A test compound was suspended in a 0.5% methyl cellulose (MC), and administered intraperitoneally twice to each animal at 2 hours prior to, and 6 hours after the antigen-challenge at a dose of 100 mg/5 ml/kg. To the control group, a 0.5% MC was administered in the same manner instead of a test compound.
# The measurement and analysis of the respiratory function were carried out by a modified method of the method of Hutson et al., (cf., Penny A. Hutson et al., Am Rev Respir Dis 1988 137, 548-557). Before the antigen-challenge (before the administration of the drug) and 5 minutes, and 3, 17 and 20 hours after the antigen-challenge, the respiratory function of each animal was measured, and the wave pattern was recorded using Maclab Chart v 3.4 (AD instruments), and the analysis of the respiratory function was carried out later by using thereof. The specific airway conductance (sGaw) was calculated, and the degree of the improvement of the respiratory function was evaluated by using it as an index.
# [2] = system: leukocyte infiltration into the airway; experiment: Leukocyte infiltration into the airway in the guinea pig models (BALF cell counts); format: in vivo
# Protocol: Evaluation of the Compound in the Leukocyte Infiltration into the Airway in the Guinea Pig Models:
# In the same manner to in Experiment 2, the sensitization, the antigen challenge, and the administration of pyrilamine maleate and a medicament were carried out.
# The recovery of bronchoalveolar lavage fluid (BALF) was carried out at 24 hours after the antigen challenge. Namely, the animals were anesthetized by intraperitoneal administration of pentbarbital (50 mg/ml) at a dose of 0.5 ml per animal, and the animals were subjected to an abdominal operation after sufficiently anesthetized. The perineal abdominal aorta was cut and the animals were killed by venesection. The diaphragm was incised and the neck was also incised to expose the trachea. After the trachea was cut, a cannula was inserted thereto, and an ice-cooled saline solution (5 ml) was injected by using a 5 ml syringe. Then, the injection and the suction were repeated three times by using the same solution for recovery. The fluid was collected and filtered through a stainless mesh, and collected in a tube on the ice. These procedures were repeated twice, and the recovery fluid was collected into the same tube (cases wherein the fluid volume was not more than 7 ml were not employed as data).
# After the recovery, the fluid volume to be recovered was measured with the eye, and the fluid was centrifuged at 1500 rpm at 4° C. for 3 minutes, and the supernant was discarded. The residue was subjected to hemolysis under hypooncotic conditions. The mixture was centrifuged at 1500 rpm at 4° C. for 3 minutes, and the supernatant was discarded. The cells thus collected were suspended in a phosphoric buffered saline solution (PBS (−))(1 ml) containing a 0.5% BSA. The total number of cells were counted in this suspension by an automated leukocyte counter. After the measurement, a slide preparation was prepared by using Cytospin, which was further stained with a Diff Quick Stainning Kit.
# [3] = BALF recovered at 24 hours after the antigen challenge, guinea pig
# [4] = versus control group, BALF 24 hours after antigen challenge, 100 mg/5 ml/kg i.p. twice
# [5] = Table 44, concentration tested 30 μM, Experiment 4
# [6] = ratio of inhibiting the specific binding of [125I]-iodo-cyanopindolol, test concentration 30 μM
compound,measurement,setting,value
Cl.NCCCn1c(-c2ccc(Br)cc2)csc1=Nc1ccccc1,melting point,,241 to 242 °C
"CN(C)CCCn1c(-c2ccc(Br)cc2)csc1=Nc1ccccc1 [Example 1, N-{4-(4-bromophenyl)-3-[3-(dimethylamino)propyl]thiazol-2(3H)-ylidene}aniline]",inhibition at 30 µM,"[1]; Table 37, compound concentration 30 μM, [125I]-iodo-cyanopindolol, Experiment 1",61.3%
same,inhibitory rate of LAR (from rate of change of sGaw),"Hartley male guinea pigs; 20-hr value, versus control group, 100 mg/5 ml/kg i.p. twice",about 60%
same,"Rate of change of sGaw, 5 minutes","Hartley male guinea pigs; 5 minutes after antigen challenge (IAR), 100 mg/5 ml/kg i.p. 2 h prior to and 6 h after challenge",−33.8 ± 6.8%
same,"Rate of change of sGaw, 20 hours","Hartley male guinea pigs; 20 hours after antigen challenge (LAR), 100 mg/5 ml/kg i.p. 2 h prior to and 6 h after challenge",−14.2±15.0%
same,inhibition of IAR induced immediately after the antigen challenge,"Hartley male guinea pigs; result in words, 100 mg/5 ml/kg i.p. twice",tendency of inhibiting the IAR
same,Number of eosinophils (×10^5),[2]; [3],13.8 ± 5.1 ×10^5
same,Number of lymphocytes (×10^5),[2]; [3],2.0 ± 0.6 ×10^5
same,Total number of cells (×10^5),[2]; [3],62.1 ± 8.6 ×10^5
same,reduction of number of eosinophils in BALF,[2]; [4],79%
same,reduction of number of lymphocytes in BALF,[2]; [4],70%
same,reduction of total number of cells in BALF,[2]; [4],82%
"COc1ccc(C(=O)/N=c2\scc(-c3ccc(OC(F)(F)F)cc3)n2CCCNC(C)=O)c(OC)c1 [Example 446, N-[3-[3-(Acetoamino)propyl]-4-[4-(trifluoromethoxy)phenyl]-1,3-thiazol-2(3H)-ylidene]-2,4-dimethoxybenzamide]",inhibition at 30 µM,[1]; [5],97%
same,melting point,,131 to 132 °C
"COc1ccc(C(=O)N=c2scc(CNS(=O)(=O)c3ccc(C)cc3)n2CCCNC(C)=O)c(OC)c1 [Example 473, N-[3-[3-(Acetylamino)propyl]-4-({[(4-methylphenyl)sulfonyl]amino}-methyl)thiazol-2(3H)-ylidene]-2,4-dimethoxybenzamide]",inhibition at 30 µM,[1]; [5],33%
COc1ccc(C(=O)/N=c2\scc(-c3ccc(OC(F)(F)F)cc3)n2CCCNC(=O)CN(C)C)c(OC)c1 [Example 482],inhibition at 30 µM,[1]; [6],85%
CCNC(=O)NCCCn1c(-c2ccc(OC(F)(F)F)cc2)cs/c1=N\C(=O)c1ccc(OC)cc1OC [Example 484],inhibition at 30 µM,[1]; [6],97%
CCNC(=S)NCCCn1c(-c2ccc(OC(F)(F)F)cc2)cs/c1=N\C(=O)c1ccc(OC)cc1OC [Example 494],inhibition at 30 µM,[1]; [6],65%
CCNC(=O)NCCCn1c(-c2ccc(F)cc2)cs/c1=N\C(=O)c1ccc(Cl)cc1OC [Example 496],inhibition at 30 µM,[1]; [6],80%
COc1ccc(C(=O)/N=c2\scc(-c3ccc(OC(F)(F)F)cc3)n2CCCNC(=O)N(C)C)c(OC)c1 [Example 508],inhibition at 30 µM,[1]; [6],102%
COc1ccc(C(=O)/N=c2\scc(-c3ccc(OC(F)(F)F)cc3)n2CCCNC(=O)N2CCOCC2)c(OC)c1 [Example 509],inhibition at 30 µM,[1]; [6],103%
CCOC(=O)CCNCCCn1c(-c2ccc(OC(F)(F)F)cc2)cs/c1=N\C(=O)c1ccc(OC)cc1OC [Example 520],inhibition at 30 µM,[1]; [6],99%
COc1ccc(C(=O)/N=c2\scc(-c3ccc(OC(F)(F)F)cc3)n2CCCNCC(N)=O)c(OC)c1 [Example 521],inhibition at 30 µM,[1]; [6],74%
COc1ccc(C(=O)/N=c2\scc(-c3ccc(OC(F)(F)F)cc3)n2CCCNCC(=O)NCC(=O)O)c(OC)c1 [Example 523],inhibition at 30 µM,[1]; [6],73%
COc1ccc(C(=O)/N=c2\scc(-c3ccc(OC(F)(F)F)cc3)n2CCCNCC(=O)O)c(OC)c1 [Example 531],inhibition at 30 µM,[1]; [6],32%
COc1ccc(C(=O)/N=c2\scc(-c3ccc(OC(F)(F)F)cc3)n2CCCNC(=N)N)c(OC)c1 [Example 534],inhibition at 30 µM,[1]; [6],87%
COc1ccc(C(=O)/N=c2\scc(-c3ccc(OC(F)(F)F)cc3)n2CCCNC(=N)N2CCCCC2)c(OC)c1 [Example 535],inhibition at 30 µM,[1]; [6],108%
CCS(=O)(=O)NCCCn1c(-c2ccc(OC(F)(F)F)cc2)cs/c1=N\C(=O)c1ccc(OC)cc1OC [Example 536],inhibition at 30 µM,[1]; [6],67%
